Results on 19 molecules are retold here after US11352340B2, “Pyridine and pyridimine compounds as PI3K-gamma inhibitors” (Incyte Corporation, priority 2016, dated 2022).

Structures can show the parent of a compound that is named as a salt.

The target of assay [1] is PI3Kδ (p110δ/p85α) Recombinant Human Protein (Homo sapiens (Human), UniProt O00329). Briefly: PI3Kδ Scintillation Proximity Assay. The format is biochemical. As to conditions: read-out: PI3K-delta SPA IC50. An outline of the steps: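 Assay conditions: 2 μM ATP (radiolabelled), 20 μM PIP2, 3.4 nM PI3Kδ, 20 mM MOPS pH 6.7 with 10 mM MgCl2, 5 mM DTT, 0.03% CHAPS, 2 h at room temperature. Signal from bead-captured 33P product; IC50 versus solvent control.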
In general terms: Scintillation proximity formats need no separation of bound from free tracer.

Assay [2] concerns Phosphorylated Ribosomal Protein S6 (RPS6) in THP-1 cells. Description: THP-1 RPS6 ELISA Assay. Type of assay: cell-based, Human. The note with it: Homo sapiens, MCP-1 stimulated, phospho-RPS6 ELISA, read-out: THP p-RPS6 ELISA IC50. On the procedure: Example A. THP-1 RPS6 ELISA Assay
To measure the Phosphorylated Ribosomal Protein S6 (RPS6) in cell lysates, THP-1 cells (Human Acute Monocytic Leukemia) are purchased from ATCC (Manassas, Va.) and maintained in RPMI with 10% FBS (Gibco/Life Technologies, Carlsbad, Calif.). For the assay, THP-1 cells are serum starved overnight in RPMI, then plated in RPMI (2×10^5 cells/well in 90 μL) into 96-well flat-bottom tissue culture treated plates (Corning, Corning, N.Y.), in the presence or absence of a concentration range of test compounds. Covered plates are incubated for 2 hours at 37° C., 5% CO2 then treated with or without 10 nM MCP-1 (MYBioSource, San Diego, Calif.) for 15 minutes at 37° C., 5% CO2. Plates are centrifuged at 1600 RPM and supernatants are removed. Cells are lysed in Lysis Buffer (Cell Signaling, Danvers, Mass.) with Protease Inhibitor (Calbiochem/EMD, Germany), PMSF (Sigma, St Louis Mo.), HALTS (Thermo Fisher, Rockford, Ill.) for 30 min on wet ice. Cell lysates are frozen at −80° C. before testing. The lysates are tested in the Human/Mouse/Rat Phospho-RPS6 ELISA (R&D Systems, Inc. Minn, Minn.). The plate is measured using a microplate reader (SpectraMax M5—Molecular Devices, LLC Sunnyvale, Calif.) set to 450 nm with a wavelength correction of 540. IC50 determination is performed by fitting the curve of inhibitor percent inhibition versus the log of the inhibitor concentration using the GraphPad Prism 5.0 software.
(ELISA stands for enzyme-linked immunosorbent assay.)

Assay [3] deals with PI3Kγ (p110γ) Recombinant Human Protein (Homo sapiens (Human), UniProt P48736). Description: PI3K-γ Scintillation Proximity Assay. Type of assay: biochemical. The note with it: read-out: PI3K-gamma SPA IC50. Put shortly:
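Radiometric SPA: reaction at room temperature for 120 min using 2 μM ATP with [γ-33P]ATP tracer, 20 μM PIP2 substrate and 13 nM human PI3Kγ (MOPS pH 6.7, MgCl2, DTT, CHAPS; 2% DMSO). EDTA quench with WGA beads, scintillation count, and IC50 fit of percent-of-control activity.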

Sequence of PI3Kδ (p110δ/p85α) Recombinant Human Protein (O00329 whole entry): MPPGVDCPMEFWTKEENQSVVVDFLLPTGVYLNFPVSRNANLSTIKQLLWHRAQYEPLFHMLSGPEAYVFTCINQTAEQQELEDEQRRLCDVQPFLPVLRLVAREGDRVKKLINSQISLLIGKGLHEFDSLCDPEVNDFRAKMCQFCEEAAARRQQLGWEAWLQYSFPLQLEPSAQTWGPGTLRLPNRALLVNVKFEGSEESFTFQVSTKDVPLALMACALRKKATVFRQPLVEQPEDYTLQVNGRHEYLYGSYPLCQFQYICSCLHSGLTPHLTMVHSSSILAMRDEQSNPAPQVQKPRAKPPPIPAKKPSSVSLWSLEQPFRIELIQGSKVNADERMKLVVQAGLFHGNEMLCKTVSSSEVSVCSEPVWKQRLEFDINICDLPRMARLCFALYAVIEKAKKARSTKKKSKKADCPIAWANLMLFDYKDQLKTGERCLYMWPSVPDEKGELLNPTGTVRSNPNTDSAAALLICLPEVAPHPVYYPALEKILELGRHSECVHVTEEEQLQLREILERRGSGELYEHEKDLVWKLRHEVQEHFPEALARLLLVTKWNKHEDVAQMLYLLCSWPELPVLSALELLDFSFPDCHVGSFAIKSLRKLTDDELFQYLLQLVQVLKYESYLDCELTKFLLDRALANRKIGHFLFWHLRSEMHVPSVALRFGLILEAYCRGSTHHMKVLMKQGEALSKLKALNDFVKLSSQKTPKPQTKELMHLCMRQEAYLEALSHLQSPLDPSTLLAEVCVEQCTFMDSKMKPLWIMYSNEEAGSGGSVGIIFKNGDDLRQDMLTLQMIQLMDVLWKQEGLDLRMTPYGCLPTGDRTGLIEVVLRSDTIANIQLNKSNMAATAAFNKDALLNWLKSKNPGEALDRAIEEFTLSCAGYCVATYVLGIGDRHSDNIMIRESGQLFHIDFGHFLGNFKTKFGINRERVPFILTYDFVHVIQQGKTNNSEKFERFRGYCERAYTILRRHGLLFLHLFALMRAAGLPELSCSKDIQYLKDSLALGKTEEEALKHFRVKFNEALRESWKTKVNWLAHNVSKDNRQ
Sequence of PI3Kδ (p110δ/p85α) Recombinant Human Protein (P27986 whole entry partner): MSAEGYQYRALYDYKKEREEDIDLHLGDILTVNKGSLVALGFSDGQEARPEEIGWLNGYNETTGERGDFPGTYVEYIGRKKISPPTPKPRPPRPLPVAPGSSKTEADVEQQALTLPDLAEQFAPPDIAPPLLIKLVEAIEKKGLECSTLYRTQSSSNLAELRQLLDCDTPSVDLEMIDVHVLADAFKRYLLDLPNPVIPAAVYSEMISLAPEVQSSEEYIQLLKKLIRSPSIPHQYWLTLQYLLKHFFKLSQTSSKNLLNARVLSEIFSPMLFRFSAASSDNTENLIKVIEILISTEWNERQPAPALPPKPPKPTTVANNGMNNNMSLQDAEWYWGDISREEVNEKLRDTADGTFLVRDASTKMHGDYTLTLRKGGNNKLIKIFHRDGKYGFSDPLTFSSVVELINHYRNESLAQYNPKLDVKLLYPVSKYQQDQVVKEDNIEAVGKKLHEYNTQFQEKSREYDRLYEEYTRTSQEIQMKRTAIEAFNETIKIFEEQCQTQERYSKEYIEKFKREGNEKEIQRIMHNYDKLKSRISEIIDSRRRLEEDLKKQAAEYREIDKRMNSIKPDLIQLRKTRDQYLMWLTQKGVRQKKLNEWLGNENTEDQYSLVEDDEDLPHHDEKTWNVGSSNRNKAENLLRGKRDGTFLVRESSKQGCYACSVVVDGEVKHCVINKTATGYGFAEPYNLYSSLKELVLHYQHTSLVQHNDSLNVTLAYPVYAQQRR
Sequence of PI3Kγ (p110γ) Recombinant Human Protein (P48736 whole entry): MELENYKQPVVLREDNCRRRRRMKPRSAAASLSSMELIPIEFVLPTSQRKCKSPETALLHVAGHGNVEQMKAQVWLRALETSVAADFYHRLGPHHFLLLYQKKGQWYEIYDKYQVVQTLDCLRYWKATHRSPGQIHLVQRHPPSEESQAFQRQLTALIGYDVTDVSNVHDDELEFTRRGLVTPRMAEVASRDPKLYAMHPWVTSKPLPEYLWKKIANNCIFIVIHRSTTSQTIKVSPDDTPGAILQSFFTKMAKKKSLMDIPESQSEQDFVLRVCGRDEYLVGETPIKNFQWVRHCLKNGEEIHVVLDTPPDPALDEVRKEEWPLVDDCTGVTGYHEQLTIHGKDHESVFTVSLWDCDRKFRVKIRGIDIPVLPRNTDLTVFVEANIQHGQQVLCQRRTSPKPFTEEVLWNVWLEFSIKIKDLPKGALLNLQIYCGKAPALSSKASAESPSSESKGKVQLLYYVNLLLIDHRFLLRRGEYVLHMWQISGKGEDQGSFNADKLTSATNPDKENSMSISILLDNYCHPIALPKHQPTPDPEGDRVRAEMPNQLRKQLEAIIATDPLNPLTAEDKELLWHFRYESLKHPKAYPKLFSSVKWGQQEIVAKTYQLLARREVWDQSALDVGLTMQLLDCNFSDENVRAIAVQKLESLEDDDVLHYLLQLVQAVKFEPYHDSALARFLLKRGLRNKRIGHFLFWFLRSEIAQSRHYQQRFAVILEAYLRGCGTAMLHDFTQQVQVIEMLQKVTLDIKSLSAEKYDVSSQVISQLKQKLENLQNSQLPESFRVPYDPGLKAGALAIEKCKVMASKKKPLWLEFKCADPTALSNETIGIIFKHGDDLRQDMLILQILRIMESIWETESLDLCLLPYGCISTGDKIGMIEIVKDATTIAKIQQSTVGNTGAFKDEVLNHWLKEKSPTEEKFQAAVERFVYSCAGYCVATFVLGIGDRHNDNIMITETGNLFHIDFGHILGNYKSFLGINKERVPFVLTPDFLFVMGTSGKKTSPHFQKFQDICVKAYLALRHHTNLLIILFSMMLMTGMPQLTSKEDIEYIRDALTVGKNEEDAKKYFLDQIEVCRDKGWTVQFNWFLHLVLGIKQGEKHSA

For `Cc1nc(-c2cc(-c3cncc(NCC4CCOC4)c3)ccn2)[nH]c1C` (racemic) [Example 145B, 2′-(4,5-Dimethyl-1H-imidazol-2-yl)-N-(tetrahydrofuran-3-ylmethyl)-3,4′-bipyridin-5-amine], the IC50 in assay [1] was at most 0.05 µM; in assay [2] it was at most 0.3 µM; in assay [3], at most 0.05 µM.
Take `Cc1nc(-c2cc(-c3cncc(NC(C)c4ccccc4)c3)ccn2)[nH]c1C` (racemic) [Example 145C, 2′-(4,5-Dimethyl-1H-imidazol-2-yl)-N-(1-phenylethyl)-3,4′-bipyridin-5-amine trifluoroacetate salt]: the IC50 is at most 0.05 µM in assay [1], at most 0.3 µM in assay [2] and at most 0.05 µM in assay [3].
Take `Cc1nc(-c2cc(-c3cncc(C(=O)N4CCCC(O)C4)c3)ccn2)[nH]c1C` (racemic) [Example 154, (2′-(4,5-Dimethyl-1H-imidazol-2-yl)-3,4′-bipyridin-5-yl)(3-hydroxypiperidin-1-yl)methanone]: the IC50 in assay [1] is at most 0.1 µM; in assay [2], 0.3 to 1 µM; in assay [3], at most 0.05 µM.
In the case of `Cc1nc(-c2cc(-c3cncc(C(=O)N4CCC(CCO)C4)c3)ccn2)[nH]c1C` (racemic) [Example 169, (2′-(4,5-Dimethyl-1H-imidazol-2-yl)-3,4′-bipyridin-5-yl)(3-(2-hydroxyethyl)pyrrolidin-1-yl)methanone], the IC50 is at most 0.05 µM in assay [1], 1 to 5 µM in assay [2] and at most 0.1 µM in assay [3].
The matching figures for `COC1CCN(C(=O)c2cncc(-c3ccnc(-c4nc(C)c(C)[nH]4)c3)c2)C1` (racemic) [Example 174, 2′-(4,5-Dimethyl-1H-imidazol-2-yl)-5-[(3-methoxypyrrolidin-1-yl)carbonyl]-3,4′-bipyridine trifluoroacetate salt]: at most 0.05 µM, at most 0.3 µM and at most 0.05 µM.
In the same order, the values of `COC(=O)C1CCN(C(=O)c2cncc(-c3ccnc(-c4nc(C)c(C)[nH]4)c3)c2)C1` (racemic) [Example 175, Methyl 1-{[2′-(4,5-dimethyl-1H-imidazol-2-yl)-3,4′-bipyridin-5-yl]carbonyl}pyrrolidine-3-carboxylate trifluoroacetate salt] are at most 0.05 µM, at most 0.3 µM and at most 0.05 µM.
The matching figures for `Cc1nc(-c2cc(-c3cncc(C(=O)N4CCC(C(F)(F)F)C4)c3)ccn2)[nH]c1C` (racemic) [Example 178, 2′-(4,5-Dimethyl-1H-imidazol-2-yl)-5-{[3-(trifluoromethyl)pyrrolidin-1-yl]carbonyl}-3,4′-bipyridine trifluoroacetate salt]: at most 0.05 µM, at most 0.3 µM and at most 0.05 µM.
In the case of `Cc1nc(-c2cc(-c3cncc(C(=O)N4CCC(C)(O)C4)c3)ccn2)[nH]c1C` (racemic) [Example 180, 1-{[2′-(4,5-Dimethyl-1H-imidazol-2-yl)-3,4′-bipyridin-5-yl]carbonyl}-3-methylpyrrolidin-3-ol trifluoroacetate salt], the results for the IC50 in assay [1], in assay [2] and in assay [3] were at most 0.05 µM, 1 to 5 µM and at most 0.05 µM, respectively.
On to `Cc1nc(-c2cc(-c3cncc(C(=O)N4CCC(C#N)C4)c3)ccn2)[nH]c1C` (racemic) [Example 183, 1-{[2′-(4,5-Dimethyl-1H-imidazol-2-yl)-3,4′-bipyridin-5-yl]carbonyl}pyrrolidine-3-carbonitrile trifluoroacetate salt], for which the IC50 was at most 0.05 µM in assay [1], 0.3 to 1 µM in assay [2] and at most 0.05 µM in assay [3].
Regarding `Cc1nc(-c2cc(-c3cncc(C(=O)N4CCC4C(F)(F)F)c3)ccn2)[nH]c1C` (racemic) [Example 184, 2′-(4,5-Dimethyl-1H-imidazol-2-yl)-5-{[2-(trifluoromethyl)azetidin-1-yl]carbonyl}-3,4′-bipyridine trifluoroacetate salt], the IC50 in assay [1] is at most 0.05 µM; in assay [2] it was 0.3 to 1 µM; in assay [3], at most 0.05 µM.
Consider `Cc1nc(-c2cc(-c3cncc(C(=O)N4CCCCC4C)c3)ccn2)[nH]c1C` (racemic) [Example 190, 2′-(4,5-Dimethyl-1H-imidazol-2-yl)-5-[(2-methylpiperidin-1-yl)carbonyl]-3,4′-bipyridine trifluoroacetate salt], for which the IC50 in assay [1] was at most 0.1 µM; in assay [2], 0.3 to 1 µM; in assay [3], at most 0.05 µM.
In the same order, the values of `Cc1nc(-c2cc(-c3cncc(C4CCN(S(C)(=O)=O)C4)c3)ccn2)[nH]c1C` (racemic) [Example 240, 2′-(4,5-Dimethyl-1H-imidazol-2-yl)-5-[1-(methylsulfonyl)pyrrolidin-3-yl]-3,4′-bipyridine] are at most 0.5 µM, 1 to 5 µM and at most 0.1 µM.
Consider `Cc1[nH]c(-c2cc(-c3cncc(N4CCOCC4)c3)ccn2)nc1C(=O)NC(C)c1cccc(F)c1` (racemic) [Example 277, N-[1-(3-Fluorophenyl)ethyl]-5-methyl-2-(5-morpholin-4-yl-3,4′-bipyridin-2′-yl)-1H-imidazole-4-carboxamide trifluoroacetate salt], for which the IC50 was at most 0.05 µM in assay [1], at most 0.3 µM in assay [2] and at most 0.05 µM in assay [3].
Turning to `CS(=O)(=O)N1CCC(c2c[nH]c(-c3cc(-c4cnn(Cc5ccc(Cl)cc5)c4)ccn3)n2)C1` (single isomer, unassigned) [Example 300, 4-[1-(4-Chlorobenzyl)-1H-pyrazol-4-yl]-2-{4-[1-(methylsulfonyl)pyrrolidin-3-yl]-1H-imidazol-2-yl}pyridine Trifluoroacetate Salt], the IC50 in assay [1] was at most 0.5 µM; in assay [2], 0.3 to 1 µM; in assay [3], at most 0.05 µM.
The matching figures for `Clc1ccc(Cn2cc(-c3ccnc(-c4ncc(-c5ccccc5)[nH]4)c3)cn2)cc1` [Example 1, 4-[1-(4-Chlorobenzyl)-1H-pyrazol-4-yl]-2-(5-phenyl-1H-imidazol-2-yl)pyridine Trifluoroacetate Salt]: above 0.5 µM, above 5 µM and at most 0.05 µM.
In the same order, the values of `c1ccc(Cn2cc(-c3ccnc(-c4ncc(-c5ccccc5)[nH]4)c3)cn2)cc1` [Example 5, 4-(1-Benzyl-1H-pyrazol-4-yl)-2-(5-phenyl-1H-imidazol-2-yl)pyridine trifluoroacetate salt] are at most 0.05 µM, 1 to 5 µM and at most 0.1 µM.
For `N#Cc1ccccc1Cn1cc(-c2ccnc(-c3ncc(-c4ccccc4)[nH]3)c2)cn1` [Example 6, 2-((4-(2-(5-Phenyl-1H-imidazol-2-yl)pyridin-4-yl)-1H-pyrazol-1-yl)methyl)benzonitrile trifluoroacetate salt], the IC50 in assay [1] was at most 0.5 µM; in assay [2], above 5 µM; in assay [3] it was at most 0.1 µM.
The matching figures for `Clc1ccccc1Cn1cc(-c2ccnc(-c3ncc(-c4ccccc4)[nH]3)c2)cn1` [Example 7, 4-(1-(2-Chlorobenzyl)-1H-pyrazol-4-yl)-2-(5-phenyl-1H-imidazol-2-yl)pyridine trifluoroacetate salt]: at most 0.5 µM, above 5 µM and at most 0.1 µM.
Consider `Cc1n[nH]cc1-c1ccnc(-c2ncc(-c3ccccc3)[nH]2)c1` [Example 9, 4-(3-Methyl-1H-pyrazol-4-yl)-2-(5-phenyl-1H-imidazol-2-yl)pyridine trifluoroacetate salt], for which the values for the IC50 in assay [1], in assay [2] and in assay [3] were at most 0.5 µM, 1 to 5 µM and at most 0.1 µM, respectively.
